ChEMBL document CHEMBL1153082, “Design and synthesis of N(6)-substituted-4'-thioadenosine-5'-uronamides as potent and selective human A(3) adenosine receptor agonists” (Bioorg Med Chem, 2009)

How the values were obtained:
[1] = target: T1, Adenosine receptor A2a (Homo sapiens, UniProt P29274); assay: Displacement of [3H]CGS21680 from human adenosine A2A receptor expressed in CHO cells at 1 uM; assay type: cell-based
[2] = target: T2, Adenosine receptor A3 (Homo sapiens, UniProt P0DMS8); assay: biochemical
T2 sequence (P0DMS8 whole entry): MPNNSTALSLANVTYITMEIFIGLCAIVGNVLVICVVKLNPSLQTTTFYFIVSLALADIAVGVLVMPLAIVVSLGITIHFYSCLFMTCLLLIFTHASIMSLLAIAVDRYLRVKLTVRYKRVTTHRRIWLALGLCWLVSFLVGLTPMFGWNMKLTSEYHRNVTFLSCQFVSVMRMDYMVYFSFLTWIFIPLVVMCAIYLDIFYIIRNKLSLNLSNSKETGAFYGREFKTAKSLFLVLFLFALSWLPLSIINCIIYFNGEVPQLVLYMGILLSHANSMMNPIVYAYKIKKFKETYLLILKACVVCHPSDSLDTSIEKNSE

[3] = target: T3, Adenosine receptor A1 (Homo sapiens) (UniProt P30542); assay: Displacement of [3H]R-PIA from human adenosine A1 receptor expressed in CHO cells at 1 uM; assay type: cell-based
T3 sequence (whole entry): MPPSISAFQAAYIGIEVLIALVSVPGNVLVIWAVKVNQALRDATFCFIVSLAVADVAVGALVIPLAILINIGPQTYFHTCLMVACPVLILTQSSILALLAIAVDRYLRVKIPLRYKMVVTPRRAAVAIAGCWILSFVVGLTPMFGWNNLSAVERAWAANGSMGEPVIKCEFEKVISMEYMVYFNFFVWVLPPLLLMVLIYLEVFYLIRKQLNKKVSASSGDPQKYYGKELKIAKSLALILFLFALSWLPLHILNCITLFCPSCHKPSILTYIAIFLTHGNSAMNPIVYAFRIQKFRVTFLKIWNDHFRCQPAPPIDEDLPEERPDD

[4] = target: T4, Adenosine receptor A1 (Homo sapiens, UniProt P30542); assay: biochemical
T4 sequence (P30542 whole entry): T3 sequence (whole entry)

[5] = target: T1, Adenosine receptor A2a; assay: biochemical
[6] = target: T4, Adenosine receptor A1
[7] = target: T1, Adenosine receptor A2a

T1 sequence (P29274 whole entry): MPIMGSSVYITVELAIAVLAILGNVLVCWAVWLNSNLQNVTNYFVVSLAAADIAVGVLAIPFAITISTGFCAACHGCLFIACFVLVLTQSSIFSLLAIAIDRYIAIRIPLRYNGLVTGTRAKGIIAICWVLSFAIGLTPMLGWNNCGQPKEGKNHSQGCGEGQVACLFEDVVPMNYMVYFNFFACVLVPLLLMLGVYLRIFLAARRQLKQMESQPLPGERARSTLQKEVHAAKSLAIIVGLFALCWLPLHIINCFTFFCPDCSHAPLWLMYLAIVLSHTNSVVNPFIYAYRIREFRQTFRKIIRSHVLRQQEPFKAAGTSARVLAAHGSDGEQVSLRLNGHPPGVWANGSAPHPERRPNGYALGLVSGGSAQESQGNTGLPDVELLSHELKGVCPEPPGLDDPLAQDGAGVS

inhibition [1] [%]	Ki [2] [µM]	inhibition [3] [%]	Ki [4] [µM]	Ki [5] [µM]	Ki [6] [µM]	Ki [7] [µM]	SMILES
35	0.0354	28					O=C(NC1CCCCC1)[C@H]1S[C@@H](n2cnc3c(NCc4cccc(I)c4)ncnc32)[C@H](O)[C@@H]1O
28	0.135	15					Cc1ccc(CNC(=O)[C@H]2S[C@@H](n3cnc4c(NCc5cccc(I)c5)ncnc43)[C@H](O)[C@@H]2O)cc1
37	0.0949		4.07				Cc1cccc(CNC(=O)[C@H]2S[C@@H](n3cnc4c(NCc5cccc(I)c5)ncnc43)[C@H](O)[C@@H]2O)c1
20	0.00119		0.0695				CNC(=O)[C@H]1S[C@@H](n2cnc3c(NC)ncnc32)[C@H](O)[C@@H]1O
	0.00042		0.0054	0.0576			CCNC(=O)[C@H]1S[C@@H](n2cnc3c(NCc4cccc(I)c4)ncnc32)[C@H](O)[C@@H]1O
44	0.0611	25					O=C(NCc1cccc(F)c1)[C@H]1S[C@@H](n2cnc3c(NCc4cccc(I)c4)ncnc32)[C@H](O)[C@@H]1O
45	0.00135		0.0331				CNc1ncnc2c1ncn2[C@@H]1S[C@H](C(=O)NCC2CC2)[C@@H](O)[C@H]1O
27	0.00097		0.0486				CNc1ncnc2c1ncn2[C@@H]1S[C@H](C(=O)NC2CCCC2)[C@@H](O)[C@H]1O
	0.00216		0.00658	0.161			CNc1ncnc2c1ncn2[C@@H]1S[C@H](C(=O)NC2CC2)[C@@H](O)[C@H]1O
	0.00104		0.00627	0.108			CNc1ncnc2c1ncn2[C@@H]1S[C@H](C(=O)NC2CCC2)[C@@H](O)[C@H]1O
	0.00117		0.0236	0.122			O=C(NC1CCC1)[C@H]1S[C@@H](n2cnc3c(NCc4cccc(I)c4)ncnc32)[C@H](O)[C@@H]1O
	0.00216		0.159	1.6			O=C(NCC1CC1)[C@H]1S[C@@H](n2cnc3c(NCc4cccc(I)c4)ncnc32)[C@H](O)[C@@H]1O
24	0.0156	24					CNc1ncnc2c1ncn2[C@@H]1S[C@H](C(=O)NCc2cccc(I)c2)[C@@H](O)[C@H]1O
20	0.113	12					CCOc1ccccc1CNC(=O)[C@H]1S[C@@H](n2cnc3c(NCc4cccc(I)c4)ncnc32)[C@H](O)[C@@H]1O
	0.116	17					O=C(NC(c1ccccc1)c1ccccc1)[C@H]1S[C@@H](n2cnc3c(NCc4cccc(I)c4)ncnc32)[C@H](O)[C@@H]1O
11	1.2	20					O=C(NCc1cccc2ccccc12)[C@H]1S[C@@H](n2cnc3c(NCc4cccc(I)c4)ncnc32)[C@H](O)[C@@H]1O
38	0.00097		0.00483				CCNC(=O)[C@H]1S[C@@H](n2cnc3c(NC)ncnc32)[C@H](O)[C@@H]1O
26	0.144	25					O=C(NCc1cccc(Cl)c1)[C@H]1S[C@@H](n2cnc3c(NCc4cccc(I)c4)ncnc32)[C@H](O)[C@@H]1O
23	0.097	34					COc1ccccc1CNC(=O)[C@H]1S[C@@H](n2cnc3c(NCc4cccc(I)c4)ncnc32)[C@H](O)[C@@H]1O
38	0.433	20					O=C(NCCc1ccccc1)[C@H]1S[C@@H](n2cnc3c(NCc4cccc(I)c4)ncnc32)[C@H](O)[C@@H]1O
31	0.031	18					Cc1ccccc1CNC(=O)[C@H]1S[C@@H](n2cnc3c(NCc4cccc(I)c4)ncnc32)[C@H](O)[C@@H]1O
					0.0202	0.475	CNC(=O)[C@H]1S[C@@H](n2cnc3c(NCc4cccc(I)c4)ncnc32)[C@H](O)[C@@H]1O

SMILES	inhibition [1] [%]	Ki [2] [µM]	inhibition [3] [%]	Ki [4] [µM]	Ki [5] [µM]	Ki [6] [µM]	Ki [7] [µM]
O=C(NC1CC1)[C@H]1S[C@@H](n2cnc3c(NCc4cccc(I)c4)ncnc32)[C@H](O)[C@@H]1O		0.00303			0.0152		
